Data as given in patent publication US20200221739A1, “METHOD FOR REMOVAL OF ANTIBIOTIC RESIDUES FROM FOOD PRODUCTS” (The King Abdulaziz City for Science and Technology, priority 2016, published 2020).

What was measured:
[1] = Removal of amoxicillin spiked in water, milk, eggs and chicken meat by gamma radiation, HPLC; assay type: physicochemical; details: for Removal percentage: 7 kGy, average across 1, 10, 20 and 50 |iM, assuming 15% error
Excerpt: In all the example mentioned in the foregoing, the source of gamma radiation is a Cobalt-60 gamma rays source model Gamma Cell 220 from MDS Nordion, Canada. The source of gamma radiation was calibrated using aqueous ferrous sulfate (Fricke dosimetry) solution.
The desired concentration of amoxicillin was spiked in water, milk, eggs, and chicken meat. 20 |iL of spiked water samples before and post irradiation treatment was directly injected in HPLC. Amoxicillin spiked in milk, eggs, and chicken meat was extracted using acetonitrile. 2 mL (milk or eggs) or 2 g (chicken meat) of the spiked samples was mixed with 5 mL acetonitrile and shaken for 10 minutes following which the samples were centrifuged for 5 minutes at a speed of 3000 rpm. 5 mL of the supernatant was evaporated in a rotary-evaporation system and the antibiotic residue was dissolved in 2 mL of double distilled water. 20 |iL of the extracted samples was injected in HPLC.
Direct Uv-Vis measurements cannot be conducted to quantify the antibiotics in samples extracted from dairy or poultry products due to the significant chemical interference. FIG. 5 illustrates a comparison of HPLC signals of a range of amoxicillin concentration before and after irradiation with 7 kGy.
Removal percentage of amoxicillin in different samples with varied concentrations is reported by comparing the original concentrations with the corresponding post irradiation concentrations (i.e. before and after irradiation). FIG. 9 illustrates the average removal percentages for each sample type across the different concentration range (1, 10, 20, and 50 |iM), assuming 15% error in the observations. It was observed that there was 100% removal and decomposition of amoxicillin in water & milk samples and 80% removal of amoxicillin in eggs & chicken meat samples at a radiation dose of 7 kGy, within the permissible limits accepted by IAEA for food irradiation.

[2] = Degradation of amoxicillin by gamma radiation, 1H and 13C NMR; assay type: physicochemical; details: 5 mg/mL in water/D2O 1:1, 7 kGy
Protocol: Further, an additional confirmation of the degradation of amoxicillin was conducted using ^1H and ^13C NMR studies. Amoxicillin is dissolved in water and diluted at a ratio of 1:1 using D2O. A high concentration of amoxicillin (5 mg/mL) was used for this technique, with water as the NMR solvent. […] It is observed that the proton signals (at 4.5 to 4.8 ppm) of amoxicillin before irradiation are disappearing upon irradiation treatment. FIG. 11 illustrates the ^13C spectra of 5 mg/mL amoxicillin before and after irradiation treatment at 7 kGy for amoxicillin. Overall, the intensities of ^13C peaks are reduced (approximately 50%) after irradiation treatment indicating the decomposition and reduction in amoxicillin concentration in the sample.

[3] = tested on: E-coli; assay: E-coli growth inhibition experiments; assay type: cell-based
Protocol: With reference to FIG. 12 (top panel), two control experiments with water were conducted.

[4] = Degradation of antibiotics in double distilled water by gamma radiation, UV-Vis absorption; assay type: physicochemical; details: 50 |iM in double distilled water, 7 kGy gamma radiation
Protocol: The three target antibiotics as mentioned above were dissolved in double distilled water to make desired concentrations (in 10 mL volume). […] UV-Vis absorption spectra of the studied antibiotics in solution were recorded before and after irradiation treatment at different doses.
With reference to FIG. 2A, the maximum absorption of doxycycline at 275 nm was plotted against the concentration.

Structure (SMILES): CC1(C)S[C@@H]2[C@H](NC(=O)[C@H](N)c3ccc(O)cc3)C(=O)N2[C@H]1C(=O)O [amoxicillin]
- Removal percentage ([1]; chicken meat samples): 80%
- Removal percentage ([1]; eggs samples): 80%
- Removal percentage ([1]; milk samples): 100%
- Concentration of amoxicillin after irradiation (HPLC) ([1]; range of concentrations, after irradiation with 7 kGy): below the detection limit of HPLC
- Removal percentage ([1]; water samples): 100%
- Reduction of intensities of 13C peaks after irradiation treatment [2]: approximately 50%
- Antimicrobial effect on E-coli growth ([3]; amoxicillin 150 |iM irradiated at 7 kGy): complete loss of antimicrobial effect
- Antimicrobial effect on E-coli growth ([3]; non-irradiated amoxicillin sample): growth inhibition
- Removal (decrease of UV-Vis absorption bands) upon gamma irradiation [4]: completely removed
